Assay results: the supplement of paper PMC10307832

Experiments:
Test in all cases: relative viability (nuclei count vs DMSO), 5 days (fraction); higher = more cells survive
RAF265 + Trametinib = compound: Cn1c(Nc2ccc(C(F)(F)F)cc2)nc2cc(Oc3ccnc(-c4ncc(C(F)(F)F)[nH]4)c3)ccc21 [RAF265] + CC(=O)Nc1cccc(-n2c(=O)n(C3CC3)c(=O)c3c(Nc4ccc(I)cc4F)n(C)c(=O)c(C)c32)c1 [Trametinib] (partner 0.02 µM)
Outline: (§1)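 Relative viability divides the nuclei count in treated wells by that in vehicle wells. Lung cancer cell lines were seeded in 1536-well plates, dosed by pin tool the next day, and fixed and stained after 5 days in one step with final 0.05% Triton X-100, 1% formaldehyde and 1 ug/ml Hoechst. Dosing was a single drug or a fixed anchor-drug dose plus five library-drug doses (not always all listed) in √10 steps, and values are medians of duplicate plates imaged at 4×.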

IPA-3 + Decitabine = compound: C1=CC=C2C(=C1)C=CC(=C2SSC3=C(C=CC4=CC=CC=C43)O)O [IPA-3] + Nc1ncn([C@H]2C[C@H](O)[C@@H](CO)O2)c(=O)n1 [Decitabine] (partner 2 µM)
Outline: as §1

RAF265 + Bortezomib = compound: Cn1c(Nc2ccc(C(F)(F)F)cc2)nc2cc(Oc3ccnc(-c4ncc(C(F)(F)F)[nH]4)c3)ccc21 [RAF265] + CC(C)C[C@H](NC(=O)[C@H](Cc1ccccc1)NC(=O)c1cnccn1)B(O)O [Bortezomib] (partner 0.002 µM)
Outline: as §1

Doramapimod + Dasatinib = compound: Cc1ccc(-n2nc(C(C)(C)C)cc2NC(=O)Nc2ccc(OCCN3CCOCC3)c3ccccc23)cc1 [Doramapimod] + Cc1nc(Nc2ncc(C(=O)Nc3c(C)cccc3Cl)s2)cc(N2CCN(CCO)CC2)n1 [Dasatinib] (partner 0.075 µM)
Outline: as §1

Cell Line | relative viability (RAF265 + Trametinib; first compound 0.01 µM) | relative viability (RAF265 + Trametinib; first compound 0.03162 µM) | relative viability (RAF265 + Trametinib; first compound 0.1 µM) | relative viability (RAF265 + Trametinib; first compound 0.3162 µM) | relative viability (RAF265 + Trametinib; first compound 1 µM) | relative viability (IPA-3 + Decitabine; first compound 0.2 µM) | relative viability (IPA-3 + Decitabine; first compound 0.6325 µM) | relative viability (IPA-3 + Decitabine; first compound 2 µM) | relative viability (IPA-3 + Decitabine; first compound 6.325 µM) | relative viability (IPA-3 + Decitabine; first compound 20 µM) | relative viability (RAF265 + Bortezomib; first compound 0.01 µM) | relative viability (RAF265 + Bortezomib; first compound 0.03162 µM) | relative viability (RAF265 + Bortezomib; first compound 0.1 µM) | relative viability (RAF265 + Bortezomib; first compound 0.3162 µM) | relative viability (RAF265 + Bortezomib; first compound 1 µM) | relative viability (Doramapimod + Dasatinib; first compound 0.02 µM) | relative viability (Doramapimod + Dasatinib; first compound 0.06325 µM) | relative viability (Doramapimod + Dasatinib; first compound 0.2 µM) | relative viability (Doramapimod + Dasatinib; first compound 0.6325 µM) | relative viability (Doramapimod + Dasatinib; first compound 2 µM)
SW 1573 | 0.665 | 0.597 | 0.556 | 0.54 | 0.255 | 0.7 | 0.452 | 0.485 | 0.56 | 0.121 | 1.38 | 0.91 | 1.17 | 0.873 | 0.514 | 0.461 | 0.394 | 0.588 | 0.685 | 0.411
Calu-6 | – | – | – | – | – | – | – | – | – | – | 0.919 | 0.819 | 0.834 | 0.473 | 0.368 | – | – | – | – | –
SW 900 | 0.83 | 0.994 | 0.836 | 0.679 | 0.52 | 0.501 | 0.453 | 0.49 | 0.415 | 0.476 | – | – | – | – | – | 0.654 | 0.548 | 0.714 | 0.813 | 0.553
NCI-H1623 | – | – | – | – | – | – | – | – | – | – | – | – | – | – | – | 0.534 | 0.522 | 0.497 | 0.495 | 0.521
HCC-44 | 0.938 | 1.02 | 1.08 | 1.01 | 0.966 | 0.951 | 0.943 | 0.879 | 0.924 | 0.846 | 0.862 | 0.818 | 0.9 | 0.957 | 0.873 | – | – | – | – | –
NCI-H1944 | 0.454 | 0.453 | 0.386 | 0.324 | 0.246 | 0.468 | 0.41 | 0.456 | 0.481 | 0.412 | – | – | – | – | – | 0.213 | 0.231 | 0.193 | 0.232 | 0.216
NCI-H1648 | 0.534 | 0.455 | 0.535 | 0.387 | 0.29 | 0.529 | 0.465 | 0.4 | 0.59 | 0.525 | – | – | – | – | – | – | – | – | – | –
NCI-H358 | 0.152 | 0.115 | 0.116 | 0.127 | 0.129 | 0.229 | 0.199 | 0.196 | 0.2 | 0.108 | – | – | – | – | – | 0.164 | 0.156 | 0.162 | 0.204 | 0.171
ABC-1 | – | – | – | – | – | 1.35 | 1.02 | 1.33 | 0.99 | 1.26 | 0.308 | 0.321 | 0.278 | 0.284 | 0.303 | 0.572 | 0.581 | 0.539 | 0.534 | 0.498
NCI-H1563 | – | – | – | – | – | – | – | – | – | – | 0.994 | 0.836 | 0.851 | 0.69 | 0.803 | 0.437 | 0.478 | 0.44 | 0.82 | 0.421
NCI-H2342 | 0.75 | 0.715 | 0.786 | 0.698 | 0.682 | 0.772 | 0.75 | 0.737 | 0.798 | 0.839 | – | – | – | – | – | 0.277 | 0.309 | 0.319 | 0.333 | 0.278
NCI-H1793 | 0.403 | 0.44 | 0.303 | 0.232 | 0.237 | 0.545 | 0.495 | 0.566 | 0.442 | 0.529 | – | – | – | – | – | 0.335 | 0.379 | 0.368 | 0.36 | 0.344
NCI-H522 | 0.743 | 0.77 | 0.613 | 0.679 | 0.657 | 0.703 | 0.642 | 0.534 | 0.689 | 0.765 | – | – | – | – | – | 0.715 | 0.851 | 0.863 | 0.785 | 0.812
CAL-12T | 0.334 | 0.296 | 0.273 | 0.209 | 0.333 | – | – | – | – | – | 1.06 | 0.834 | 0.836 | 0.476 | 0.64 | 0.521 | 0.371 | 0.306 | 0.44 | 0.348
SK-MES-1 | 0.601 | 0.531 | 0.443 | 0.317 | 0.285 | 0.455 | 0.394 | 0.423 | 0.296 | 0.31 | – | – | – | – | – | 0.374 | 0.406 | 0.413 | 0.41 | 0.33
EBC-1 | – | – | – | – | – | – | – | – | – | – | 0.48 | 0.464 | 0.521 | 0.482 | 0.489 | – | – | – | – | –
LK-2 | 0.721 | 0.628 | 0.787 | 0.799 | 0.53 | 0.297 | 0.333 | 0.32 | 0.442 | 0.346 | – | – | – | – | – | 0.241 | 0.278 | 0.202 | 0.213 | 0.22
IA-LM | – | – | – | – | – | – | – | – | – | – | 0.77 | – | 0.805 | 0.593 | 0.548 | – | – | – | – | –
NCI-H1703 | – | – | – | – | – | – | – | – | – | – | 0.253 | 0.289 | 0.36 | 0.295 | 0.216 | – | – | – | – | –
NCI-H2228 | 0.651 | 0.58 | 0.423 | 0.201 | 0.247 | – | – | – | – | – | 0.968 | 0.82 | 0.887 | 0.412 | 0.42 | 0.561 | 0.48 | 0.452 | 0.49 | 0.398
NCI-H1395 | 1.12 | 0.933 | 1.1 | 0.968 | 0.685 | 0.688 | 0.666 | 0.728 | 0.687 | 0.714 | – | – | – | – | – | 0.413 | 0.433 | 0.401 | 0.546 | 0.363
